These results are taken from patent publication US20240324531A1, “METHOD TO INCREASE POLLEN FERTILITY” (Keygene N.V., priority 2021, published 2024).

Entries after “also recorded” stand apart in the source; their conditions may differ.

In the experiment the test system is anthers of B. rapa x B. oleracea cross (F1). Nature of the experiment: Opening of anthers after treating immature flower buds of the AC hybrid. The experiment is classed as in vivo, Brassica rapa x Brassica oleracea interspecific hybrid. The settings on record: 20 nM; F1 of this cross normally does not form open anthers. An excerpt: Alternatively or in addition, preferably in the provided first seed plant, at least about 2%, 4%, 6%, 8%, 10%, 15%, 20%, 25%, 30%, 35%, 40%, 45%, 50%, 55%, 60%, 65%, 70%, 75%, 80%, 85%, 90%, 95% or 100% of the anthers remain closed upon pollen maturation. Preferably, less than about 95%, 90%, 85%, 80%, 75%, 70%, 65%, 60%, 55%, 50%, 45%, 40%, 35%, 30%, 25%, 20%, 15%, 10%, 8%, 6%, 4%, 2% or less than about 1% of the anthers open upon pollen maturation.

As to `NC1=NC(=O)C(=Cc2ccc(O)cc2)S1` [Mirin, 2-Amino-5-[(4-hydroxyphenyl)methylene]-4(5H)-thiazolone], the opening of anthers result is “open anther; also recorded: opening of anthers”.
